From ChEMBL document CHEMBL5370623, “Discovery of Quinazoline-2,4(1H,3H)-dione Derivatives Containing a Piperizinone Moiety as Potent PARP-1/2 Inhibitors─Design, Synthesis, In Vivo Antitumor Activity, and X-ray Crystal Structure Analysis” (J Med Chem, 2023) come the findings set out here.

Each structure is given as a SMILES string. ≈ marks a conversion by molar mass, not a printed value. Calls of active or inactive are those of the source. No cut-off for these calls is given here.

Data set [1] concerns the target T1, Poly [ADP-ribose] polymerase 1 (Homo sapiens, UniProt P09874). The experiment in a line: Inhibition of human PARP1 in human MX1 cells assessed as enzyme-DNA trapping activity at 1 uM incubated for 24 hrs by Western blot analysis. The data set is classed as cell-based.
Data set [2] addresses Protein mono-ADP-ribosyltransferase PARP10 (Homo sapiens) (UniProt Q53GL7). Nature of the data set: Inhibition of human N-terminal FLAG-tagged/C-terminal Strep-tagged recombinant PARP10 (805 to 1025 residues) expressed in Sf9 cells at 1 uM relative to control.
Data set [3] has as its target Protein mono-ADP-ribosyltransferase PARP11 (Homo sapiens) (UniProt Q9NR21). Nature of the data set: Inhibition of human N-terminal FLAG-tagged/C-terminal His-tagged recombinant PARP11 (8 to 338 (end) residues) expressed in Sf9 cells at 1 uM relative to control.
The target of data set [4] is Protein mono-ADP-ribosyltransferase PARP12 (Homo sapiens) (UniProt Q9H0J9). The experiment in a line: Inhibition of human N-terminal FLAG/His-tagged recombinant PARP12 (500 to 701(end) residues) expressed in Sf9 cells at 1 uM relative to control.
The target in data set [5] is Protein mono-ADP-ribosyltransferase PARP14 (Homo sapiens) (UniProt Q460N5). The experiment in a line: Inhibition of human N-terminal GST/His-tagged recombinant PARP14 (1470 to 1801(end) residues) expressed in Sf9 cells at 1 uM relative to control.
Data set [6] addresses Protein mono-ADP-ribosyltransferase PARP15 (Homo sapiens) (UniProt Q460N3). The experiment in a line: Inhibition of human N-terminal GST-tagged recombinant PARP15 (221 to 444(end) residues) expressed in Escherichia coli at 1 uM relative to control.
Data set [7] deals with Poly [ADP-ribose] polymerase tankyrase-1 (Homo sapiens) (UniProt O95271). Nature of the data set: Inhibition of human recombinant N-terminal GST-tagged TNKS1 (1001 to 1327(end) residues) expressed in Sf9 cells at 1 uM relative to control.
Data set [8] has as its target Poly [ADP-ribose] polymerase tankyrase-2 (Homo sapiens) (UniProt Q9H2K2). Nature of the data set: Inhibition of human recombinant N-terminal GST-tagged TNKS2 (849 to 1166(end) residues) expressed in Sf9 cells at 1 uM relative to control.
Data set [9] has as its target Protein mono-ADP-ribosyltransferase TIPARP (Homo sapiens) (UniProt Q7Z3E1). Nature of the data set: Inhibition of PARP7 in human THP-1 cells assessed as induction of TBK1 phosphorylation at 10 uM incubated for 24 hrs by immunoblotting analysis. The data set is classed as cell-based.
In a further data set the test system is THP-1. The experiment in a line: Inhibition of PARP1/2 mediated DNA repair pathway in human THP-1 cells assessed as induction of gamma-H2AX phosphorylation at 10 uM incubated for 24 hrs by immunoblotting analysis. The data set is classed as cell-based.
Data set [10] is filed under the species Felis catus. The experiment in a line: Binding affinity to cat PARP1 assessed as dissociative half-life by SPR assay. (In SPR one partner is held on a chip, and binding of the other changes the refractive index at the surface.)
For data set [11], the species on record is Felis catus. The experiment in a line: Binding affinity to cat PARP2 assessed as dissociative half-life by SPR assay.
Data set [12] concerns MC-38. The experiment in a line: Antitumor activity against mouse MC38 cells implanted in C57BL/6 mouse assessed as increase in CD8+T cells in tumor at 10 mg/kg, po qd measured after 17 days by flow cytometry analysis. Conditions: time 17.0 day. In kind it is functional, organism-based. For orientation: A flow cytometer gives signals particle by particle.
Data set [13] has as its target T2, Poly [ADP-ribose] polymerase 2 (Homo sapiens, UniProt Q9UGN5). The experiment in a line: Inhibition of PARP2 (unknown origin).
The subject of data set [14] is MX1. Nature of the data set: Cytotoxicity against human MX1 cells […] assessed as inhibition of cell growth measured after 72 hrs by MTT assay. In kind it is functional, cell-based. Conditions: MX1, 72 h.
Data set [15] relates to MX1. Nature of the data set: Potentiation factor, ratio of IC50 for cytotoxicity against human MX1 cells to IC50 for cytotoxicity against human MX1 cells in presence of temozolomide. In kind it is functional.
Data set [16] deals with MC-38. The experiment in a line: Antitumor activity against mouse MC38 cells implanted in C57BL/6 mouse assessed as tumor growth inhibition at 50 mg/kg, po qd measured after 17 days. In kind it is functional. Conditions: time 17 day.
Data set [17] relates to MC-38. Nature of the data set: Antitumor activity against mouse MC38 cells implanted in C57BL/6 mouse assessed as increase in CD8+T cells in tumor at 50 mg/kg, po qd measured after 17 days by flow cytometry analysis. Conditions: time 17.0 day. The data set is classed as functional, organism-based.
A short description of data set [18]: Tmax in BALB/c mouse at 25 mg/kg, po measured upto 24 hrs by LC-MS/MS analysis. In kind it is ADME, organism-based. Conditions: in vivo.
For data set [19], the target named is T1, Poly [ADP-ribose] polymerase 1. The experiment in a line: Inhibition of human recombinant PARP1 expressed in Escherichia coli BL21(DE3) incubated for 1 hr by ELISA assay. In general terms: In an ELISA, binding on a coated surface is turned into a signal by an enzyme label.
The target in data set [20] is T2, Poly [ADP-ribose] polymerase 2. The experiment in a line: Inhibition of human recombinant PARP2 expressed in Escherichia coli BL21(DE3) incubated for 1 hr by ELISA assay.
The nature of data set [21]: Aqueous solubility of the compound. In kind it is physicochemical.
A short description of data set [22]: Half life in BALB/c mouse at 25 mg/kg, po measured upto 24 hrs by LC-MS/MS analysis. In kind it is ADME, organism-based. Conditions: in vivo.
Data set [23] in a line: Cmax in BALB/c mouse at 25 mg/kg, po measured upto 24 hrs by LC-MS/MS analysis. The arrangement: time < 24 hrs, dose 25 mg/kg, route po. Conditions: in vivo. The data set is classed as ADME, organism-based.
Data set [24] in a line: AUC (0 to t) in BALB/c mouse at 25 mg/kg, po measured upto 24 hrs by LC-MS/MS analysis. The data set is classed as ADME, organism-based. The arrangement: time < 24 hrs, dose 25 mg/kg, route po. Conditions: in vivo.
The nature of data set [25]: AUC (0 to infinity) in BALB/c mouse at 25 mg/kg, po measured upto 24 hrs by LC-MS/MS analysis. In kind it is ADME, organism-based. Also noted: dose 25 mg/kg, time < 24 hrs, route po. Conditions: in vivo.
Data set [26] is described as follows: MRT (0 to t) in BALB/c mouse at 25 mg/kg, po measured upto 24 hrs by LC-MS/MS analysis. In kind it is ADME, organism-based. Conditions: in vivo.
Data set [27] is described as follows: MRT (0 to infinity) in BALB/c mouse at 25 mg/kg, po measured upto 24 hrs by LC-MS/MS analysis. In kind it is ADME, organism-based. Conditions: in vivo.
Data set [28] has as its target T1, Poly [ADP-ribose] polymerase 1.
Description: Inhibition of PARP1 (unknown origin)

T2 sequence (Q9UGN5 whole entry): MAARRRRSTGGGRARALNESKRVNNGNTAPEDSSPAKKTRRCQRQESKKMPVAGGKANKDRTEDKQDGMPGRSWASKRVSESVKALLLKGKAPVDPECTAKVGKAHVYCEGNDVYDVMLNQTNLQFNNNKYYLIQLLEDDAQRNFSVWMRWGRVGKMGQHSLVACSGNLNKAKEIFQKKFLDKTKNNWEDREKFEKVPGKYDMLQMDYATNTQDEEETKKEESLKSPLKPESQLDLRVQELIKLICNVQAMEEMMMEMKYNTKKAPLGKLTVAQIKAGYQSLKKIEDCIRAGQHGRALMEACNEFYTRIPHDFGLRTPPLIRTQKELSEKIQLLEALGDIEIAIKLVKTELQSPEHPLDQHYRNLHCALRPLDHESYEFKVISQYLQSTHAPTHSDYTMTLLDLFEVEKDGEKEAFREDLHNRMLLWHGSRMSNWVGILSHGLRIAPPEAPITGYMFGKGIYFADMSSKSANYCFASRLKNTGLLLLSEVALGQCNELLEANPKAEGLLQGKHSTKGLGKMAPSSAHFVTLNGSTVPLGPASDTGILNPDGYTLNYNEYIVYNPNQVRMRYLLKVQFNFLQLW
T1 sequence (P09874 whole entry, the tested form may be a part): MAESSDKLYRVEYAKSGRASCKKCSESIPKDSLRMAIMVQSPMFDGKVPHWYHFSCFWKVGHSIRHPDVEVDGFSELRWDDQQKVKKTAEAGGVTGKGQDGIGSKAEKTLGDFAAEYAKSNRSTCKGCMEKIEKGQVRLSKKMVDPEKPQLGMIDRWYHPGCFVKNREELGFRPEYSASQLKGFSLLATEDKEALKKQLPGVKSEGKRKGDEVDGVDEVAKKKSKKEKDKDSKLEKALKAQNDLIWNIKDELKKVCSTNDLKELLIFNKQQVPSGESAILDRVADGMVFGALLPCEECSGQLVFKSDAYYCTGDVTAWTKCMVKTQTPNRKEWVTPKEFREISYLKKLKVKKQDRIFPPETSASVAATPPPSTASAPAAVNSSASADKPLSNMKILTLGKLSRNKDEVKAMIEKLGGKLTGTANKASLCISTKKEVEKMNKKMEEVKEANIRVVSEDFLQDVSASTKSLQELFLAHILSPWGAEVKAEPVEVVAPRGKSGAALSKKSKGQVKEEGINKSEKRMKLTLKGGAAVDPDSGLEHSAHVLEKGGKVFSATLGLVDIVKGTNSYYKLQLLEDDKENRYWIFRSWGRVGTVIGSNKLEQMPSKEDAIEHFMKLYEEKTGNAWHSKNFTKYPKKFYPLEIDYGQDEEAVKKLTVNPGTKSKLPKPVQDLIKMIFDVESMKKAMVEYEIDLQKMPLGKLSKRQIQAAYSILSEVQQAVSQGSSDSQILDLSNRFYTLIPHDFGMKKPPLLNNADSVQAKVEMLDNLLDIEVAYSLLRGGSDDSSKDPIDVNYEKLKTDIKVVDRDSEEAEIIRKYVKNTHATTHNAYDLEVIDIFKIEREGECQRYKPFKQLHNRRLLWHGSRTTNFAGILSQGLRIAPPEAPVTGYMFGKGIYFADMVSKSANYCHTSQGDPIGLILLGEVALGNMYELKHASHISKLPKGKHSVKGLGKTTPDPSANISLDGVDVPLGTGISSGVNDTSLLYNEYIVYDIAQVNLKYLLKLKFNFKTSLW
Chain of Protein mono-ADP-ribosyltransferase PARP11 (Homo sapiens) (Q9NR21 whole entry): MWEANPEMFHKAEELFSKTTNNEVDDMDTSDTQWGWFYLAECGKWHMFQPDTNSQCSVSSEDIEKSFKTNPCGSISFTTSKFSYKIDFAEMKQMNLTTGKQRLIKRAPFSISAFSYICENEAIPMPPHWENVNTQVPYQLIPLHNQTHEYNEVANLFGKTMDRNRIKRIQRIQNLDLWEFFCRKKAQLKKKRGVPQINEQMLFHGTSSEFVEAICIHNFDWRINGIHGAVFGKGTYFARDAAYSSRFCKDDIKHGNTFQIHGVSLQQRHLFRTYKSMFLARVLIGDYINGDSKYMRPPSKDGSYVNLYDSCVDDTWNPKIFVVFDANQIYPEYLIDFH
Chain of Protein mono-ADP-ribosyltransferase TIPARP (Homo sapiens) (Q7Z3E1 whole entry): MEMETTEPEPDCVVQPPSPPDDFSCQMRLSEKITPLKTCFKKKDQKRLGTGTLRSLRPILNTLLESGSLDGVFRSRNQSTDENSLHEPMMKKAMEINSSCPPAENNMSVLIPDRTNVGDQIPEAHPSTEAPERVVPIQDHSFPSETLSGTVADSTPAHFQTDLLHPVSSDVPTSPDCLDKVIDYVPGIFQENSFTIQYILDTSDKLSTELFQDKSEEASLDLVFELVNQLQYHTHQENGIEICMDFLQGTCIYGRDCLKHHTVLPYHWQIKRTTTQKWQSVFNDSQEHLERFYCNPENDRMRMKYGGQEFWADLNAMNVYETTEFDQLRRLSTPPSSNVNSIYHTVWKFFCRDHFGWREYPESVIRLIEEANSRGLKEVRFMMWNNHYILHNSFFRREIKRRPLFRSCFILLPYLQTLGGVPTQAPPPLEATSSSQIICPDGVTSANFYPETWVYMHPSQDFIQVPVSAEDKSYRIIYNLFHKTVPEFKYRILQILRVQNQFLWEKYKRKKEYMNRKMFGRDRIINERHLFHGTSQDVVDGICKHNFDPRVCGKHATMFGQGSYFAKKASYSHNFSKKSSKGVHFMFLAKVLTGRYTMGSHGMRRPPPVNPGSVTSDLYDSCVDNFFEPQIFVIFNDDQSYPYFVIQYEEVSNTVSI
Chain of Protein mono-ADP-ribosyltransferase PARP10 (Homo sapiens) (Q53GL7 whole entry, the tested form may be a part): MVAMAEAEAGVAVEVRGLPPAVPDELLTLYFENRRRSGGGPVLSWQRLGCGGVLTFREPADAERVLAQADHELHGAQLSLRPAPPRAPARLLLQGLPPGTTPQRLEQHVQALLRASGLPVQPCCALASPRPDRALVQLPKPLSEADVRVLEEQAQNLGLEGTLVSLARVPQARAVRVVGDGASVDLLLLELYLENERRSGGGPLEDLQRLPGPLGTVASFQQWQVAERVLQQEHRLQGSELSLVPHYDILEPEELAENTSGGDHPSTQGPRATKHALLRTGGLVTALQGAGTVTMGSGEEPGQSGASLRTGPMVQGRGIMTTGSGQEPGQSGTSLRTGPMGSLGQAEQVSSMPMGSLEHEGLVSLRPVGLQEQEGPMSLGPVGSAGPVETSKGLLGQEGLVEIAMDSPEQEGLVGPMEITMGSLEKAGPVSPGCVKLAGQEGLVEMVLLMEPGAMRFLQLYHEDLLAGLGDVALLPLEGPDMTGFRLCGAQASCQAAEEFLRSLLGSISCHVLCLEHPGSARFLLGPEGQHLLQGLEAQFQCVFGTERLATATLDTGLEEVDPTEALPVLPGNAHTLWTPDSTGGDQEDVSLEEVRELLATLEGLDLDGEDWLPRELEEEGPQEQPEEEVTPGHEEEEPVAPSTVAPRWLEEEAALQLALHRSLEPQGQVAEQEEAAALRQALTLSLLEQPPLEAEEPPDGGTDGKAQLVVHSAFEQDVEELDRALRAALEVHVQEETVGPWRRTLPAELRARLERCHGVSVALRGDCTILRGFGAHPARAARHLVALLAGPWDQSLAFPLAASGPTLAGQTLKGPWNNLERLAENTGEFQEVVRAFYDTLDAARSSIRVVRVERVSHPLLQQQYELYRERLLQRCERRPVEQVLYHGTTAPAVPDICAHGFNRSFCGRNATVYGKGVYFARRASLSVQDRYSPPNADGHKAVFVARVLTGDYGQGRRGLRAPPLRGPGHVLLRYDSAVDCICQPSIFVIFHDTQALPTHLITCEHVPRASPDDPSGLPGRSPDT
Chain of Protein mono-ADP-ribosyltransferase PARP15 (Homo sapiens) (Q460N3 whole entry): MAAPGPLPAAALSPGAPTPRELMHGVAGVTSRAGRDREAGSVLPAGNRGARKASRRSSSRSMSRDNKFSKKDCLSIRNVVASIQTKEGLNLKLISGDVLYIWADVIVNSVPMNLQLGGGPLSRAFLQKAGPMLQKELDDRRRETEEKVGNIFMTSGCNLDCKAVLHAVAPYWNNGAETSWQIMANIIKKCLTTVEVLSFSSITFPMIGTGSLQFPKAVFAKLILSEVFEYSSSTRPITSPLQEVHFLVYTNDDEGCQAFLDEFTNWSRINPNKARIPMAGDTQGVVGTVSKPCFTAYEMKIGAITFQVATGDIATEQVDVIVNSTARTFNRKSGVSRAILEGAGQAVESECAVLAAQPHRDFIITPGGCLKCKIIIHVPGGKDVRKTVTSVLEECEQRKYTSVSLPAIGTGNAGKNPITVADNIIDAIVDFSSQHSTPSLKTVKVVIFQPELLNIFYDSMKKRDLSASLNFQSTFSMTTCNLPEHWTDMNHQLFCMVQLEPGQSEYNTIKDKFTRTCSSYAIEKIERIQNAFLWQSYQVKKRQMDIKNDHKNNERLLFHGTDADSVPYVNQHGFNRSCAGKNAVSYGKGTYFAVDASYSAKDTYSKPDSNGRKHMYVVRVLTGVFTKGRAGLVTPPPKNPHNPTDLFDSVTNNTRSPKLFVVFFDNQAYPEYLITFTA
Chain of Protein mono-ADP-ribosyltransferase PARP12 (Homo sapiens) (Q9H0J9 whole entry): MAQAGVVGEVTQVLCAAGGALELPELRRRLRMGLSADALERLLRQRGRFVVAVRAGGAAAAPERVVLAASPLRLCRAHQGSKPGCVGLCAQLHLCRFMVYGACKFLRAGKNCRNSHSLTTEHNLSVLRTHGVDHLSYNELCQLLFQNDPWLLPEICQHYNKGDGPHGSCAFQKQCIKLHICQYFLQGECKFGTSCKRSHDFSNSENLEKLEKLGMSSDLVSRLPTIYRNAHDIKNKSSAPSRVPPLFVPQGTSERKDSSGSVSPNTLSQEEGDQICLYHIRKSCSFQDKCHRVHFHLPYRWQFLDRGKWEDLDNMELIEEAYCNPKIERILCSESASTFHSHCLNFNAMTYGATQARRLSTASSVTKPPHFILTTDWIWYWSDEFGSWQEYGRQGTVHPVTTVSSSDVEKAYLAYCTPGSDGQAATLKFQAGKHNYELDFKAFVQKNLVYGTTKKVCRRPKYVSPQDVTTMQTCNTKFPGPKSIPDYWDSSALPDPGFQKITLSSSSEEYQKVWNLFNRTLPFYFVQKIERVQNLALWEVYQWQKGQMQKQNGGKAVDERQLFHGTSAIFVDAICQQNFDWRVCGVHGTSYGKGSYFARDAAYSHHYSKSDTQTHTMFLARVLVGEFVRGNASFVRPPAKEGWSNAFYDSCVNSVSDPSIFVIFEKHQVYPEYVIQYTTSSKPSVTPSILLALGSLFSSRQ

A word on the inhibition: it is the change of the read-out against control, counted positive when it falls. In the case of `CCC(CC)N1CCN(C(=O)c2cc(Cn3c(=O)[nH]c(=O)c4ccccc43)ccc2F)CC1=O` [listing 1 of 2 here], in [1], the PARP1-DNA trapping activity entry is “Active”. Further, the inhibition entry in [2], in data set [3], in data set [4], in data set [5], in data set [7] and in [8] was “inactive” in each case. The inhibition in [6] was determined as 45%. Also, the inhibition entry (in data set [9]; with THP-1) was “Active” throughout. Further, the results for the T1/2 in the data set filed under Felis catus [10] and in the data set filed under Felis catus [11] were 142 min and 140 min, respectively. Also, the result in the data set on MC-38 [12] was Active.
As usually defined, the IC50 is the concentration that inhibits the measured activity by half. On to `C[C@]12CCCN1CC1=NNC(=O)c3cc(F)cc4[nH]c2c1c34` [PAMIPARIB], for which, in data set [13], the IC50 amounted to 0.3 nM.
Broadly, the TGI is how far tumour growth fell short of that in controls. Regarding `O=C(c1cc(Cc2n[nH]c(=O)c3ccccc23)ccc1F)N1CCN(C(=O)C2CC2)CC1` [OLAPARIB], in the data set on MX1 [14], the IC50 amounted to 8.26 nM. Further, in the data set with MX1 [15], the PF50 is reported as greater than 10. In addition, the T1/2 in the data set listed under Felis catus [10] turned out to be 51.1 min; in the data set filed under Felis catus [11] it was 17.4 min. Also, the inhibition of tumour growth (TGI) in the data set on MC-38 [16] stood at 57.9%. In addition, the outcome in the data set on MC-38 [17] was inactive.
One may read the Tmax as the time at which the peak concentration occurs. In general, solubility refers to the concentration that dissolves in the medium under given conditions. The low end stands for little dissolved substance, the high end for much dissolved substance. As usually defined, the half-life is the time in which the quantity being followed falls by half. The Cmax is the highest concentration seen after dosing. By AUC(0-t) is commonly meant the area under the concentration-time curve up to a stated or last time point. A high value points to more exposure. A word on the AUC(0-inf): it is the area under the concentration-time curve extrapolated to infinity. A low value points to low exposure. A word on the MRT last: it is a mean duration of stay, worked out from the concentration-time curve. The MRT inf is a mean duration of stay, worked out from the concentration-time curve. Turning to `CCC(CC)N1CCN(C(=O)c2cc(Cn3c(=O)[nH]c(=O)c4ccccc43)ccc2F)CC1=O` [listing 2 of 2 here], in data set [18], the Tmax came out at 4.8 min. For the same molecule, the results for the IC50 (in data set [19]; in [20]; in the data set with MX1 [14]) were 3.86 nM, 0.79 nM and 0.65 nM, respectively. The PF50 in the data set with MX1 [15] is greater than 10. Also, the concentration in solution in data set [21] (solubility) came to 30.4 µg/mL (≈ 65.1 µM). Further, the half-life in [22] was 30.6 min. In [23], this molecule displayed a Cmax of 515 ng/mL. The molecule further showed an AUC(0-t) at 24 h in data set [24] of 316 ng·h/mL. In data set [25], this molecule registered an AUC(0-inf) of 340 ng·h/mL. Further, in [26], the MRT last at 24 h stood at 32.4 min. In data set [27], this molecule gave an MRT inf of 42 min.
Turning to `O=C1CN(C(=O)c2cc(Cn3c(=O)[nH]c(=O)c4ccccc43)ccc2F)CCN1CCC1CC1`, the IC50 in [19] was determined as 2.08 nM; in data set [20], 2.15 nM; with MX1 [14], 4.15 nM. Also, the PF50 in the data set with MX1 [15] is reported as greater than 10. Moreover, in data set [1], the PARP1-DNA trapping activity result was “Active”.
On the same counts, the results for `CC(C1CCCC1)N1CCN(C(=O)c2cc(Cn3c(=O)[nH]c(=O)c4ccccc43)ccc2F)CC1=O` (stereo not drawn) are 3.67 nM, 0.22 nM, 1.18 nM, greater than 10 and “Active”.
In the same order, the values of `CC(C)C(C)N1CCN(C(=O)c2cc(Cn3c(=O)[nH]c(=O)c4ccccc43)ccc2F)CC1=O` (stereo not drawn) are 9 nM, 1.86 nM, 1.67 nM, greater than 10 and “Active”.
For `O=C1CN(C(=O)c2cc(Cn3c(=O)[nH]c(=O)c4ccccc43)ccc2F)CCN1CC1CCCC1`, the IC50 in data set [19] is 2.46 nM; in data set [20], 0.1 nM; in the data set with MX1 [14], 23.2 nM. In the data set on MX1 [15], the PF50 is greater than 10. Besides, the PARP1-DNA trapping activity entry in data set [1] was “Active”.
`O=C(c1cc(Cc2n[nH]c(=O)c3ccccc23)ccc1F)N1CCn2c(nnc2-c2ccc(Br)o2)C1`: the IC50 in data set [28] is less than 0.001 nM.
